Source: US5156962A, “Process for producing carboxylic acid esters using carboxyesterase and an anhydride in organic solvent” (Takeda Chemical Industries, Ltd., priority 1986, dated 1992)

Assays:
[1] = Solubility of the crystals in solvents; assay type: physicochemical
[2] = system: PEG-modified esterase (carboxyl esterase); experiment: Acetylation of lankacidin C to lankacidin A by PEG-modified esterase with different acetyl group donors (Lineweaver-Burk analysis); assay type: biochemical, Streptomyces rochei var. volubilis; conditions: acetyl group donor as substrate, 11 mM lankacidin C in methyl isobutyl ketone, 37° C., least-squares method from Table 2; for Vmax: lankacidin A formed
Protocol: 2 ml of a solution of 11 mM concentrations of lankacidin C and 50 mM concentrations of acetic anhydride in methyl isobutyl ketone was put in a 20 ml test tube with stopper, to which was added 0.3 ml of a solution of PEG-modified esterase in 0.2M tris(hydroxymethyl) aminomethane-maleic acid buffer (pH 7.0), the concentration of PEG-modified esterase of which was 12 mg per ml, followed by shaking with shaking apparatus (80 spm) at 37° C.
By high-performance liquid chromatography (hereinafter referred to briefly as HPLC method) as described below, the amount of lankacidin A formed was measured at the time shown in Table 1.
By changing the concentration of acetyl group donor to those shown of Table 2, with the reaction time being 20 min., the same procedure as in Example 1 was conducted.
By using Lineweaver-Burk's equation of the formula 2 [Biochemical Dictionary, first edition, page 1314 (1984), Tokyokagakudozin Ltd.] derived by modifying the Michaelis-Menten equation of formula 1 [Op Cit. page 1239], the reaction using acetic anhydride as an acetyl group donor was compared with that using ethyl acetate as acetyl group donor. [formula]
By putting values of the concentration of acetyl group donor shown in Table 2 in the place of [S]o, and values of the amount of lankacidin A formed shown in Table 2 in the place of .nu., values of Km and Vmax were calculated by means of the least-squares method.

Solubility in acetone ([1]; acetone)	Solubility in chloroform ([1]; chloroform)	Solubility in ethanol ([1]; ethanol)	Solubility in methanol ([1]; methanol)	Solubility in water ([1]; water)	SMILES	Km ([2]; reaction time 20 min.)	Vmax [2]
readily soluble	relatively soluble	readily soluble	readily soluble	hardly soluble	CCC(=O)OC1C=CC2OC2CC(C)OC(=O)CC(OC(=O)CC)C(OC)C(OC2OC(C)C(OC3CC(C)(O)C(OC(=O)CC)C(C)O3)C(N(C)C)C2O)C(CC=O)CC1C (centres unmarked) [9-propionyl maridomycin III]		
					CC(=O)OC(C)=O [Acetic anhydride, acetic anhydride]	7.69 mM	6.59 mM/20 min.
					CCOC(C)=O [Ethyl acetate, ethyl acetate]		5.40 mM/20 min.
